Data on one molecule can be found in patent US10668032B2 (SyneuRx International (Taiwan) Corp., priority 2016, dated 2020).

Each structure is given as a SMILES string.

Assay [1] relates to cortical neurons. The assay is described as follows: Mitochondrial respiration, XF Cell Mito Stress Test (OCR). The class given is cell-based, rat. The note with it: 3 mM, pre-treatment 24 h. The procedure:
The preparation of primary cortical culture was as described before, but the cells were seeded on XF 96 well cell culture microplates. On the day of assay, culture media were changed to XF Assay medium (Seahorse Biosciences, USA). Prior to assay, plates were transferred into an incubator with CO2 supplementation at 37° C. and kept for 1 hour. The overall OCR was calculated.
The XF Cell Mito Stress Test modulates respiration that target components of the electron transport chain (ETC) in the mitochondria to reveal key parameters of metabolic function. The modulators (oligomycin, FCCP, and a mix of rotenone and antimycin A) are serially injected to measure ATP production, maximal respiration, and non-mitochondrial respiration. Proton leak and spare respiratory capacity are then calculated using these parameters.

Assay [2] relates to SH-SY5Y cells. The assay is described as follows: MPTP toxicity in SH-SY5Y cells, MTT assay. The format is cell-based, human. On the procedure: SH-SY5Y, the human neuroblastoma cell line, was incubated with MPTP (750 μM) for 24 hrs.
For assay [3], the system named is B6CBA-Tg(HDexon1)62Gpb/3J mice. Briefly: Survival of HDexon1 (R6/2) transgenic Huntington's disease mice. The class given is in vivo, mouse. As to conditions: 256 mg/kg/day i.p. from 11 weeks after birth, vs vehicle-treated HDexon1 transgenic mice. On the procedure:
Animals used in the examples of the present disclosure were housed in an animal room under temperature control (24-25° C.) and 12:12 light-dark cycle. Standard laboratory chow and tap water were available ad libitum. The experiments procedures were approved by the Institutional Animal Care and Use Committee and were performed in compliance with national animal welfare regulations. Transgenic mice B6CBA-Tg(HDexon1)62Gpb/3J were purchased from the Jackson Laboratory (USA).
Drug regimen was initiated 11 weeks after birth, and continued until the end of study. […] The mice of vehicle group received injections of the same volume of saline.
Date and cause of death were recorded for each mouse. Animals were closely monitored and euthanized if moribund, which was defined as the inability of mice to right themselves 30 seconds after being placed on a side, in accordance with the criteria for severe morbidity. The moribund mice were recorded as “dead”, and euthanized using carbon dioxide.

For assay [4], the system named is primary cortical cells. Briefly: Oxygen-glucose deprivation (OGD) of primary cortical culture, MTT assay. The class given is cell-based, rat. The source says: The oxygen-glucose deprivation (OGD) is a common and well-validated cell model used for brain injuries like stroke-related studies. […] To induce the OGD model, the Neurobasal medium supplemented with B27 (GIBCO/Life Technologies of Thermo Fisher Scientific Corporation) was removed from the cultures, and then rinsed with Neurobasal-A Medium (no D-glucose and sodium pyruvate [GIBCO/Life Technologies of Thermo Fisher Scientific Corporation]). The cultured cells were maintained in a humidified incubator at 37° C. with 5% CO2 for 1 h to consume the resting glucose and pyruvate. The cultures were then subjected to an anaerobic environment of 95% N2-5% CO2 for 4 hours. Oxygen concentration was monitored by an oxygen analyzer (Proox-110, Demott St, Lacona, N.Y., USA), as maintained at approximately 1.0% throughout the experiment.
A general note: Formazan colour is commonly taken as a measure of viable cells.

Assay [5] has as its system C57BL/6J mice. The assay is described as follows: Von Frey test of acute mechanical pain. The format is in vivo, mouse. As to conditions: 256 mg/kg i.p. On the procedure: Animals are housed and kept in the same condition as previous described.
The Von Frey test is used to assess mechanical nociception. A mouse is placed in a small box (10 cm×6 cm×10.5 cm) on a confined area of wire mesh (65 cm×21 cm×31 cm) (2450 Electronic Von Frey Anesthesiometer, IITC, U.S.A.). The mouse was kept in the box for 60 min to acclimatize. When the tested mouse calms down, a special tip with electrode inside was used to poke its hind paw.

Assay [6] has as its system primary cortical neurons. The assay is described as follows: 3-NP induced toxicity in primary cortical culture (Hoechst staining, MAP-2 immunocytochemistry). The class given is cell-based, rat. On the procedure: Primary cortical cultures were prepared from embryonic day 18 (E18) fetal Sprague Dawley (SD) rat brains. The cells were maintained in Neurobasal medium supplemented with B27 (GIBCO/Life Technologies of Thermo Fisher Scientific Corporation) at 37° C. for 7 days to allow growth of dendrites before experimentation.
3-NP (Cat. No. 73803, Sigma, St. Louis, Mo., USA) was dissolved in phosphate-buffered saline (PBS) as a stock solution of 1 M and adjusted to pH 7.4 with 10 M sodium hydroxide. The 3-NP stock solution was then dispensed into 1-ml aliquots, protected from light, and stored at −20° C. until use.
Hoechst staining is used to assess the extent of the cell survival. Cells were fixed in 4% paraformaldehyde (PFA) in phosphate-buffered saline (PBS), incubated with the Hoechst 33342 diluted in PBS (1:1000) for 5-15 minutes. The Hoechst staining is used to assess the extent of the cell survival after the exposure to 2.5 mM 3-NP for 24 hours.
Cells were fixed in 4% PFA and washed in PBS, blocked with 2% bovine serum albumin (BSA) and treated by 0.03% Triton X-100 in PBS, before being incubated with mouse monoclonal antibody against microtubule-associated protein-2 (MAP-2) in 1:150 dilution (Cat. No. MAB378, CHEMICON International, Inc., Temecula, Calif., USA). The goat anti-mouse IgG Alexa fluor-conjugated secondary antibodies (Cat No. A11003, Thermo Scientific) in 1:500 dilution were applied to recognize the primary antibodies of the MAP-2. For confocal microscopy, the coverslips were observed under a laser-scanning confocal microscope (Zeiss LSM700; Oberkochen, Germany) equipped with filter sets to detect the corresponding fluorescent signals.
The cells were then exposed to 2.5 mM 3-NP for 24 hours.
Quantitative analysis was also performed to assess the extents of cell death. At least three vision fields were randomly selected and the averaged numbers of dead cells and all nuclei per vision field on each coverslip were calculated.

`O=C([O-])c1ccccc1.[Li+]` [lithium benzoate]: in assay [1], the “basal respiration (basal OCR)” value is on record as “reduced more basal OCR than the other groups” and the spare respiratory capacity result is “increasing of spare respiratory capacity”. Also, in assay [1] (versus NaBen or LiCl), the ATP production entry is given as “better reduction levels” and the proton leak entry is “better reduction levels”. The “cell survival improvement compared with sodium benzoate and lithium chloride” value in assay [2] (1 mM each, MPTP 750 μM) is on record as “better performance of cell survival improvement than the other two groups”. Also, in assay [2] (0.3, 1, 3 mM tested, MPTP), the “dose at which the protective effect was most obvious” value came to 1 mM. The “proportion of mice surviving over time” value in assay [3] is “improved”. Moreover, the “cell survival under oxygen-glucose deprivation” value in assay [4] (overall treatment 53 hours (pre-treatment 24 h, habituation 1 h, OGD 4 h, reperfusion 24 h), 0.3, 1, 3, 5 mM) was “significantly protected”. Further, the “cell survival under oxygen-glucose deprivation” value in assay [4] (post-treatment for 48 hours reperfusion) is “cell protection effect at all dose levels”. Further, the “acute mechanically evoked pain (paw withdrawal threshold)” value in assay [5] (vs PBS) is listed as “alleviated”. Besides, the “time course of the antinociceptive effect” value in assay [5] (tested at 30, 60, 90, 120 min) was “obvious after 30 min of administration and lasted till 60 min”. Moreover, in assay [6] (cortical culture treated only with lithium benzoate, not 3-NP), the “cell survival, drug only” value is reported as “No difference”. Further, the “cell survival (protection from 3-NP induced neuron death)” value in assay [6] (lithium benzoate 1 mM or 3 mM pre-treatment 24 h, then 2.5 mM 3-NP 24 h) is given as “significantly protected”. Moreover, the “MAP-2 immunocytochemistry, confocal microscopy” value in assay [6] (lithium benzoate 1 or 3 mM, 3-NP exposure) is given as “neuronal protection”.
